Tests used:
[1] = molecular target: T1, KCNQ2/3 potassium ion channel (Homo sapiens, UniProt O43525+O43526); test: KCNQ2/3 potassium ion channel activation assay (whole-cell patch clamp, hKCNQ-CHO cells); assay type: cell-based; settings: read-out: Enhancment % (current enhancement multiple); for activation at 0.05 µM: test concentration 0.05 μM; for activation at 3 µM: test concentration 3 μM
T1 construct: expressed in transfected cells; host or cells: CHO cells (hKCNQ-CHO)
Procedure, shortened: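 Whole-cell patch clamp at room temperature in hKCNQ-CHO cells, pH 7.4 bath and pipette solutions, DMSO <0.3%. Enhancement = (Itest − Icontrol)/Icontrol.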

[2] = molecular target: T2, KCNQ2/3 (Homo sapiens, UniProt O43525+O43526); test: Half-maximal activation voltage left shift assay (whole-cell patch clamp, hKCNQ-CHO cells); assay type: cell-based
T2 construct: expressed in transfected cells; host or cells: CHO cells (hKCNQ-CHO)
Description: Example 65: Half-Maximal Activation Voltage Left Shift Assay
hKCNQ-CHO cells were cultured at 37° C. in a humidified environment of 5% CO2.
• a) Extracellular fluid (mM): NaCl 145, KCl 4, CaCl2 2, MgCl2 1, Glucose 10, HEPES 10. The pH value of the extracellular fluid was adjusted to 7.4 with NaOH, and the osmotic pressure was adjusted to about 295 mOsm. • b) Intracellular fluid (mM): KOH 31.25, KCl 120, EGTA 10, MgCl2 1.75, CaCl2 5.374, HEPES 10, Na-ATP 4. The pH value of the intracellular fluid was adjusted to 7.4 with HCl, and the osmotic pressure was adjusted to about 285 mOsm. • c) The extracellular fluid should be prepared once a week, and the intracellular fluid should be aliquoted and stored at −20° C. after preparation.
The model positive reference compound Retigabine (RTG) was dissolved with 100% DMSO and configured as a 10 mM working solution. The test compounds were dissolved with 100% DMSO and configured as a 10 mM working solution. The final concentration of DMSO in the test solution should be less than 0.3%.
Whole-cell patch clamp was performed at room temperature. The electrical signals recorded with the EPC 10 USB amplifier (HEKA Elektronik, Germany) were filtered by a 3 kHz low-pass filter, and finally recorded in PatchMaster 2×90.5 software (HEKA Elektronik, Germany). At this step, the quality control standard was that the cell high-resistance sealing was greater than 500 MOhms, and the detection current was greater than 0.4 nA.
The recording electrodes were pulled out and polished with a vertical puller (NARISHIGE PC-10, Japan) using a borosilicate glass capillary (GC150tF-10, Harvard Apparatus Co., UK). At this step, the quality control standard was that the electrode resistance was between 2 MΩ and 5 MΩ.
During the recording process of the whole-cell patch clamp, a continuous perfusion system (BT100-2J, LongerPump, China) was used to continuously perfuse the extracellular fluid. The perfusion system was installed on the stage of an upright microscope (FN-S2N, Nikon, Japan), and the perfusion head was manually positioned under the microscope.
The voltage command for detecting the amplitude of hKCNQ current was as follows: the cell was clamped from a potential of −80 mV, stepped to −120 mV, and then clamped continuously at increasing voltages of 10 mV per sweep until +60 mV, held for 1500 ms; and then the clamping voltage was lowered to −120 my and held for 500 ms; finally, the voltage returned to the clamping potential of −80 mV. The detection voltage command was repeated every 15,000 milliseconds, and the command was continuously executed during the compound test. The half-maximal voltage of the cell's hKCNQ was obtained by nonlinear fitting of the current amplitude at different clamping potentials (−120 mV to +60 mV).
Data analysis was performed using PatchMaster 2×90.5 software (HEKA Elektronik, Germany) and Excel 2013 (Microsoft, USA) software. For each cell's patch clamp recording, the half-maximal voltage (V½-test) of hKCNQ corresponding to the test compound concentration should be obtained. The left-shifted half-maximal voltage value ΔV½ (V1/2 Shift (mV)) was obtained by subtracting the half-maximal voltage of hKCNQ before compound action (V½-control) from V½-test.

[3] = Blood-brain barrier permeability assay in mice (brain concentration after intragastric administration); assay type: in vivo; settings: 5 mg/kg, brain tissue homogenate
Description: Administration Dosage of 5 mg/kg
The drug was prepared in proportion (solvent: 5% DMSO+5% Solutol+90% normal saline) to make a solution with a concentration of 0.5 mg/mL, and the mice were subjected to intragastric administration at 0.1 mL/10 g, with 3 mice per group in parallel.
After the mice were administered, the mice were anesthetized and perfused with normal saline through the heart, dissected to collect the brain tissue. The brain tissue was washed with normal saline, dried, weighed, and transferred to a 2 mL EP tube, added with normal saline according to brain tissue: normal saline=1:1 (g/mL). 3 steel balls were put in each tube on a tissue grinder, and the tissue mixture was homogenized at 60 HZ for 60 s, centrifuged at 15000 rpm at 4° C. for 10 minutes, and the supernatant was taken, which was the brain tissue homogenate.
The drug stock solution (0.5 mg/mL) was taken and diluted with acetonitrile to form standard curve working solutions with concentrations of 50, 100, 200, 500, 1000, 2000, 5000, 10000, and 20000 ng/mL, and quality control working solutions with concentrations of 100, 2000, and 10000 ng/mL. 47.5 μL of blank matrix was taken respectively, and 2.5 μL of standard curve working solution and 2.5 μL of quality control working solution were added thereto to prepare standard curve samples with concentrations of 2.5, 5, 10, 25, 50, 100, 250, 500, and 1000 ng/mL and quality control samples with concentrations of 5, 100, and 500 ng/mL. 200 μL of acetonitrile (containing the internal standard of 5 ng/mL of Loratadine) was added thereto respectively, subjected to vortex oscillation for 3 minutes, centrifuged at 15,000 rpm and 4° C. for 10 minutes, and the supernatant was taken and analyzed by LC-MS/MS to obtain a standard curve.
50 μL of brain tissue homogenate sample was taken, added with 200 μL of acetonitrile (containing the internal standard of 5 ng/mL of Loratadine), subjected to vortex oscillation for 3 minutes, centrifuged at 15,000 rpm and 4° C. for 10 minutes, and the supernatant was taken for LC-MS/MS analysis. The standard curve was combined with the analysis to obtain the corresponding concentrations in the brain.

[4] = test system: MES-induced epilepsy in mice; test: MES mouse epilepsy model; assay type: in vivo; settings: 5 mpk, electrical stimulation 30 minutes after administration
Description: Example 67: MES Mouse Epilepsy Model
• 1. The mice (10 mice per group) were transferred to the operating room to adapt to the environment 30 minutes before the experiment. • 2. The mice were administered the test compounds or positive drug (Valproate) at a specific time point. 30 minutes after the administration of Valproate or 30 minutes after the administration of the test compounds, electrical stimulation was given with ear electrodes. The stimulation parameters were a square wave with a total duration of 0.8 seconds, a frequency of 50 Hz, and an amplitude of 50 mA with an interval of 10 msec. • 3. The number and duration of hind limb tonic extension of the animal within 1 minute after the completion of the electrical stimulation was recorded, and the possible death and time of death were also recorded. • 4. After administration, the possible side effects induced by the drug were observed and recorded, and the side effects are divided into four levels: • None: Normal • Mild sedation • Moderate sedation • Severe sedation

Compound	activation at 0.05 µM [1] [%]	activation at 3 µM [1] [%]	V1/2 Shift (mV) ([2]; test concentration 50 nM)	Concentrations in the brain [3] [ng/g]	Protection rate for tonic extension [4] [%]	V1/2 Shift (mV) ([2]; test concentration 300 nM)
Cc1cc(N2CCCc3cc(OC(C)C)c(F)cc3C2)cc(C)c1NC(=O)CC(C)(C)C [Compound 035, N-(4-(8-fluoro-7-isopropoxy-1,3,4,5-tetrahydro-2H-benzo[c]azepin-2-yl)-2,6-dimethylphenyl)-3,3-dimethylbutanamide]	50 to 100	> 100	−16.46	257	100	–
Cc1cc(N2CCCc3cc(OC(C)C)ccc3C2)cc(C)c1NC(=O)CC(C)(C)C [Compound 003, N-(4-(7-isopropoxy-1,3,4,5-tetrahydro-2H-benzo[c]azepin-2-yl)-2,6-dimethylphenyl)-3,3-dimethylbutanamide]	< 50	50 to 100	−7.00	127.5	100	−36.06
Cc1cc(N2CCCc3cc(OC(C)C(F)(F)F)ccc3C2)cc(C)c1NC(=O)CC(C)(C)C (centres unmarked) [Compound 008, N-(2,6-dimethyl-4-(7-((1,1,1-trifluoropropan-2-yl)oxy)-1,3,4,5-tetrahydro-2H-benzo[c]azepin-2-yl)phenyl)-3,3-dimethylbutanamide]	50 to 100	> 100	−23.38	166.1	90	−47.60
Cc1cc(N2CCCc3cc(O[C@@H](C)C(F)(F)F)ccc3C2)cc(C)c1NC(=O)CC(C)(C)C [Compound 033, (S)—N-(2,6-dimethyl-4-(7-((1,1,1-trifluoropropan-2-yl)oxy)-1,3,4,5-tetrahydro-2H-benzo[c]azepin-2-yl)phenyl)-3,3-dimethylbutanamide]	–	50 to 100	−44.25	–	100	–
Cc1cc(N2CCc3cc(F)ccc3C2)cc(C)c1NC(=O)CC(C)(C)C [Xen-1101, reference compound]	–	–	−5.48	90.9	–	−13.33

Source: US20240317689A1, “POTASSIUM CHANNEL MODULATOR, COMPOSITION AND APPLICATION” (NEUSHEN THERAPEUTICS (SHANGHAI) CO., LTD, priority 2021, published 2024)
